According to patent US20070105114A1, “Biomarkers of cyclin-dependent kinase modulation” (priority 2003, published 2007):
Structures can show the parent of a compound that is named as a salt.

Assays:
[1] = system: W28729; experiment: W28729 expression in human ovarian carcinoma xenograft A2780 tumors in nude mice; format: in vivo, mouse
Description: The human ovarian carcinoma xenograft A2780s were maintained in Balb/c nu/nu nude mice. Tumors were propagated as subcutaneous (sc) transplants using tumor fragments obtained from donor mice. For the cdk2 inhibitor treatment, tumors were allowed to grow to the pre-determined size window of approximately 100-200 mg (tumors outside the range were excluded) and animals were evenly distributed to various treatment and control groups (n=6). Treatment of each animal was based on individual body weight. The cdk2 inhibitor was first dissolved in a mixture of Cremophor®/ethanol (50:50). One hour prior to administration, the cdk2 inhibitor was diluted with water so that the dosing solutions contained the specified excipient composition, i.e., Cremophor®/ethanol/water (1:1:8, v/v). The volume of all compounds injected was 0.01 ml/gm of mice. The cdk2 inhibitor was administered as a bolus injection intraperitoneal at doses of 36 and 18 mg/kg. Tumor and plasma were sampled at the time points of 4, 7, and 24 hour post treatment. Plasma sample was frozen immediately at −80° C. for pharmacokinetic analysis, and tumor sample was preserved in RNAase free buffer for pharmacogenomic analysis. The biomarker W28729 (SEQ ID NO: 1246) was selected as a preferred marker. A same-well multiplex real-time quantitative PCR assay on this biomarker with normalization control, house-keeping gene GAPDH, was developed using Taq-man MGB probes. Gene expression changes for W28729 were measured with real-time quantitative PCR assays in the following sample sets: A2780 human tumor cell line treated with 20 nM of cdk2 inhibitor for different durations (FIG. 3A), PBMC treated with 10n-M cdk2 inhibitor at 4 hours (FIG. 3B); and human ovarian carcinoma xenograft A2780 treated with cdk2 inhibitor at doses of 36 and 18 mg/kg for different durations (FIG. 3C). […] At the minimum efficacious dose (MED) of 18 mg/kg/day, the induction was sustained for more than 6 hours. In an infusion regimen using the minimum efficacious dose of 40 mg/kg, gene induction was sustained for at least 16 hours. […] Treatment with an efficacious regimen results in >2 fold induction of the sequence for 6 hours or longer. […] In addition, these observations support the use of PBMC as a surrogate tissue for monitoring changes in gene expression, that result from treatment with the cdk2 inhibitor.

[2] = system: W28729; experiment: Clinical study CA174-002 (24 hr infusion), W28729 expression in patient PBMC by RT-PCR; format: in vivo, human; settings: patients
Description: Patient inclusion criteria: The patient inclusion criteria included: primary solid malignancy refractory to current therapy and adequate bone marrow, hepatic, and renal function. Treatments: Two different treatments were undertaken: (i) 174-001 Study: 1 hr infusion of BMS-387032 q 3 wks; and (ii) 174-002 Study: 24 hr infusion of BMS-387032 q 3 wks. The sampling times were pre-dose, and 2, 6, 24 hour post-dose. W28729 Expression Analysis: RT-PCR. Patient blood samples were collected in PAXgene™ Blood Collection Tubes (Qiagen, catalog #762155). Total RNA was isolated following the manufacturer's instructions using a PAXgene™ blood RNA Kit (Qiagen, catalog #762134). W28729 and GAPDH (housekeeping gene) RNA abundance was measured by Taqman assays, using an ABI PRISM 7900 HT Sequence Detection System. W28729 abundance was normalized relative to GAPDH. Primer and probe sequences are as shown below.

CC(C)(C)c1cnc(CSc2cnc(NC(=O)C3CCNCC3)s2)o1 [cdk2 inhibitor, N-5-[[5-(1,1-Dimethylethyl)-2-oxazolyl]methyl]thio]-2-thiazolyl-4-piperidinecarboxamide, 0.5-L-tartaric acid salt]
pattern of W28729 induction in the tumors ([1]; A2780 xenografts, bolus i.p. treatments): transient, dose-dependent manner
duration of sustained W28729 induction ([1]; A2780 xenografts, bolus i.p., MED of 18 mg/kg/day): more than 6 hours
duration of sustained gene induction ([1]; A2780 xenografts, infusion regimen, 40 mg/kg): at least 16 hours
induction of the sequence ([1]; efficacious regimen, for 6 hours or longer): > 2 fold
duration of W28729 gene induction versus dose ([1]; nude mice bearing A2780 xenografts, 36 and 18 mg/kg): dose-dependent prolongation of the duration of gene induction
induction of W28729 in tumor ([1]; nude mice bearing A2780 xenografts, efficacious doses (36 and 18 mg/kg)): induction of W28729
W28729 induction in PBMC [2]: modest induction of W28729 expression
time W28729 induction was sustained following end of infusion [2]: 6 h
